# Laboratory results as given in patent US20240299562A1 (priority 2020, published 2024).
# Where two headings read alike, the source gives them in different places. Where a SMILES comes first, the peptide text is derived from it.
# Legend:
# A2780 cells = experiment: WST-1 cell viability, A2780 ovarian cancer cells; type: cell-based
# Experimental: (§1) All commercial cell lines were purchased at ATCC (LGC Standards SARL, France). Cells were seeded in 96-well plates according to their optimal seeding density, varying between 5.000 and 10.000 cells/well. After attachment overnight, 10-point serial titrations (1:5) were prepared in their equivalent complete media as recommended by ATCC, starting from the 10 mM stock solutions. For doxorubicin comprising prodrugs dilutions started from 100 μM, while for the parent compound doxorubicin dilutions started at 10 μM. […] Seventy-two hours later, compounds were removed together with the supernatants and cells were washed once with PBS to remove excess drugs.
# (§2) The WST-1 assay for cell proliferation and viability (Roche, Switzerland) was performed according to manufacturer's protocol. Absorbances were measured at 4 hrs using a Perkin Elmer Ensight multiplate reader, equipped with Kaleido 2.0 software (Perkin Elmer, USA). Cell viability was expressed as a percentage compared to non-treated cells. Absolute IC50 values were extrapolated from a non-linear fitting following the Sigmoidal-4PL regression method using Graphpad Prism 7.0. Likewise, maximal efficacy was determined as 100% minus the cell viability determined when cells are incubated in the presence of a compound. For instance, if 20% of the cells survive incubation in the presence of a compound, then the maximal efficacy of that compound is 100%-20%=80%.
# (§3) Selectivity indices (SI) were defined as the ratio of the concentration of drug required to kill 50% of the cells in normal (control, non-cancer) cells, divided by the concentration required to exert the same efficacy in tumor cells: SI=IC50 (control cell)/IC50 (cancer cell), or SI=^HME-1IC50/cancer IC50.
# [1] = WST-1 cell viability, normal HME-1 cells; type: cell-based, human; details: human; HME-1 normal cells; 72 hrs, WST-1 (Table 2); read-out: Maximal efficacy, cytotoxicity (%) at 100 μM
# Experimental: as §1, §2, §3
# HME-1 cells = experiment: WST-1 cell viability, normal HME-1 cells; type: cell-based, human; details: for IC50: read-out: Absolute IC50
# Experimental: as §1, §2, §3
# [2] = test system: Human umbilical vein endothelial cells (HUVEC); experiment: WST-1 cell viability, normal HUVEC cells; type: cell-based; details: 72 hrs
# Experimental: as §1, §2, §3
# MDA-MB-468 cells = experiment: WST-1 cell viability, MDA-MB-468 triple negative breast cancer cells; type: cell-based
# Experimental: as §1, §2, §3
# A2058 cells = experiment: WST-1 cell viability, A2058 melanoma cells; type: cell-based; details: for IC50: read-out: Absolute IC50
# Experimental: as §1, §2, §3
# [3] = test system: U87 MG glioblastoma cells subcutaneously implanted in nude NMRI mice; experiment: In vivo activity of PhAc-ALLP-Dox on U87 MG glioblastoma xenograft; design: species or system mouse; details: 30 mg/kg iv, once per week, four administrations
# Experimental: The in vivo efficacy of PhAc-ALLP-Dox was tested in a mouse GBM model. U87 MG glioblastoma cells were subcutaneously (SC) implanted in nude NMRI mice. In total, 32 adult (9-10 weeks old) nude female NMRI mice (Janvier, France) were subjected to SC tumor cell grafting in the right flank. In total, 5×10^6 U87 MG cells resuspended in PBS plus Matrigel (1:1) were injected in 200 uL final volume. As soon as the tumors were palpable and reached the volume of 200 mm3 the treatment was started. At day zero, mice were randomly divided into 4 groups, based on the tumor volume, in order to have the following experimental sub-cohorts: • control group receiving the vehicle (PBS pH7.2) with a dose of 5 ml/kg, intravenously (iv), once per week (QW); • PhAc-ALLP-Dox (30 mg/kg iv, QW); • PhAc-ALGP-Dox (154 mg/kg iv, QW); • Dox (5 mg/kg iv, QW).
# Treatments were performed once per week for a total of four tail vein administrations/injections (on days 1, 7, 14 and 21). One extra week of observation followed the active treatment phase. During the experiment, tumor volume was measured two times a week and was assessed three-dimensionally with a digital caliper (Mitutoyo, Illinois) using the following formula:
# V=4/3π×[(d/2)^2×(D/2)], where d is the minor tumor axis and D is the major tumor axis.
# DU145 cells = experiment: WST-1 cell viability, DU145 prostate cancer cells; type: cell-based
# Experimental: as §1, §2, §3
# A2780 Cp cells = experiment: WST-1 cell viability, A2780 CpR (cisplatin resistant) ovarian cancer cells; type: cell-based
# Experimental: as §1, §2, §3
# MDA-MB-231 cells = experiment: WST-1 cell viability, MDA-MB-231 triple negative breast cancer cells; type: cell-based; details: for IC50: read-out: Absolute IC50
# Experimental: as §1, §2, §3
# U-87 MG cells = experiment: WST-1 cell viability, U-87 MG glioblastoma cells; type: cell-based; details: for IC50: read-out: Absolute IC50
# Experimental: as §1, §2, §3
# LS 174T cells = experiment: WST-1 cell viability, LS 174T colorectal cancer cells; type: cell-based
# Experimental: as §1, §2, §3
# A-172 cells = experiment: WST-1 cell viability, A-172 glioblastoma cells; type: cell-based; details: for IC50: read-out: Absolute IC50
# Experimental: as §1, §2, §3
# NCI-H292 cells = experiment: WST-1 cell viability, NCI-H292 lung cancer cells; type: cell-based
# Experimental: as §1, §2, §3
smiles,measurement,setting,value
"COc1cccc2c1C(=O)c1c(O)c3c(c(O)c1C2=O)C[C@@](O)(C(=O)CO)C[C@@H]3O[C@H]1C[C@H](NC(=O)[C@@H]2CCCN2C(=O)[C@H](CC(C)C)NC(=O)[C@H](CC(C)C)NC(=O)[C@H](C)NC(=O)CP(=O)(O)O)[C@H](O)[C@H](C)O1 [PhAc-ALLP-Dox, PhAc-ALLP-Doxorubicin] (HELM PEPTIDE1{[O=C(CP(=O)(O)O)[*:2]].A.L.L.P.[COc1cccc2c1C(=O)c1c(O)c3c(c(O)c1C2=O)C[C@@](O)(C(=O)CO)C[C@@H]3O[C@H]1C[C@H](N[*:1])[C@H](O)[C@H](C)O1]}$$$$V2.0)",SI = HME-1 IC50/cancer IC50,A2780 cells; A2780 (OvC) vs HME-1 (Table 3),701.33
same,IC50,"A2780 cells; A2780 (OvC), 72 hrs, WST-1 (Table 1), read-out: Absolute IC50",50 nM
same,"Maximal efficacy, cytotoxicity (%) at 100 μM","A2780 cells; A2780 (OvC), 72 hrs, WST-1 (Table 2)",90.59%
same,"cytotoxicity at 72 h, 100 µM",[1],59.5%
same,SI = HME-1 IC50/cancer IC50,HME-1 cells; HME-1 normal cells against themselves (Table 3),1.00
same,IC50,"HME-1 cells; HME-1 normal cells, 72 hrs continuous drug exposure, WST-1 (Table 1)",36.9 µM
same,IC50,"HME-1 cells; HME-1 normal cells, 72 hrs, WST-1 (Table 4)",36.9 µM
same,Maximal efficacy,"HME-1 cells; HME-1 normal cells, 72 hrs, WST-1, cytotoxicity at highest concentration (Table 5)",59.5%
same,IC50,"[2]; WST-1 (Table 4), read-out: Absolute IC50",41.6 µM
same,Maximal efficacy,[2]; WST-1 (Table 5),53.1%
same,SI = HME-1 IC50/cancer IC50,MDA-MB-468 cells; MDA-MB-468 (TNBC) vs HME-1 (Table 3),20.94
same,IC50,"MDA-MB-468 cells; MDA-MB-468 (TNBC), 72 hrs, WST-1 (Table 1), read-out: Absolute IC50",1760 nM
same,"Maximal efficacy, cytotoxicity (%) at 100 μM","MDA-MB-468 cells; MDA-MB-468 (TNBC), 72 hrs, WST-1 (Table 2)",87.18%
same,SI = HME-1 IC50/cancer IC50,A2058 cells; A2058 (Melanoma) vs HME-1 (Table 3),298.19
same,SI = HUVEC IC50 / cancer IC50,"A2058 cells; A2058 (Melanoma), * towards HUVEC cells (Table 6)",*336.1
same,SI = normal IC50 / cancer IC50,"A2058 cells; A2058 (Melanoma), selectivity towards HME-1 cells (Table 6)",298.2
same,IC50,"A2058 cells; A2058 (Melanoma), 72 hrs, WST-1 (Table 1)",120 nM
same,"Maximal efficacy, cytotoxicity (%) at 100 μM","A2058 cells; A2058 (Melanoma), 72 hrs, WST-1 (Table 2)",97.56%
same,IC50,"A2058 cells; A2058 (Melanoma), 72 hrs, WST-1 (Table 4)",120 nM
same,Maximal efficacy,"A2058 cells; A2058 (Melanoma), 72 hrs, WST-1 (Table 5)",97.6%
same,Tumor volume compared to the untreated control group,[3],importantly reduced the tumor volume
same,SI = HME-1 IC50/cancer IC50,DU145 cells; DU145 (PrC) vs HME-1 (Table 3),5.25
same,IC50,"DU145 cells; DU145 (PrC), 72 hrs, WST-1 (Table 1), read-out: Absolute IC50",7.02 µM
same,"Maximal efficacy, cytotoxicity (%) at 100 μM","DU145 cells; DU145 (PrC), 72 hrs, WST-1 (Table 2)",79.25%
same,SI = HME-1 IC50/cancer IC50,A2780 Cp cells; A2780 Cp (OvC) vs HME-1 (Table 3),257.22
same,"Maximal efficacy, cytotoxicity (%) at 100 μM","A2780 Cp cells; A2780 Cp (OvC), 72 hrs, WST-1 (Table 2)",85.27%
same,IC50,"A2780 Cp cells; A2780 Cp (OvC, cisplatin resistant), 72 hrs, WST-1 (Table 1), read-out: Absolute IC50",140 nM
same,SI = HME-1 IC50/cancer IC50,MDA-MB-231 cells; MDA-MB-231 (TNBC) vs HME-1 (Table 3),3.85
same,SI = HUVEC IC50 / cancer IC50,"MDA-MB-231 cells; MDA-MB-231 (TNBC), * towards HUVEC cells (Table 6)",*23.6
same,SI = normal IC50 / cancer IC50,"MDA-MB-231 cells; MDA-MB-231 (TNBC), selectivity towards HME-1 cells (Table 6)",20.9
same,IC50,"MDA-MB-231 cells; MDA-MB-231 (TNBC), 72 hrs, WST-1 (Table 1)",9.57 µM
same,"Maximal efficacy, cytotoxicity (%) at 100 μM","MDA-MB-231 cells; MDA-MB-231 (TNBC), 72 hrs, WST-1 (Table 2)",71.20%
same,IC50,"MDA-MB-231 cells; MDA-MB-231 (TNBC), 72 hrs, WST-1 (Table 4)",9.57 µM
same,Maximal efficacy,"MDA-MB-231 cells; MDA-MB-231 (TNBC), 72 hrs, WST-1 (Table 5)",71.2%
same,SI = HME-1 IC50/cancer IC50,U-87 MG cells; U-87 MG (GBM) vs HME-1 (Table 3),128.53
same,SI = HUVEC IC50 / cancer IC50,"U-87 MG cells; U-87 MG (GBM), * towards HUVEC cells (Table 6)",*144.9
same,SI = iAstro IC50 / cancer IC50,"U-87 MG cells; U-87 MG (GBM), ** towards hiPSCs (iAstro) (Table 6)",**14.1
same,SI = normal IC50 / cancer IC50,"U-87 MG cells; U-87 MG (GBM), selectivity towards HME-1 cells (Table 6)",128.5
same,IC50,"U-87 MG cells; U-87 MG (GBM), 72 hrs, WST-1 (Table 1)",290 nM
same,"Maximal efficacy, cytotoxicity (%) at 100 μM","U-87 MG cells; U-87 MG (GBM), 72 hrs, WST-1 (Table 2)",94.35%
same,IC50,"U-87 MG cells; U-87 MG (GBM), 72 hrs, WST-1 (Table 4)",1440 nM
same,Maximal efficacy,"U-87 MG cells; U-87 MG (GBM), 72 hrs, WST-1 (Table 5)",97.1%
same,SI = HME-1 IC50/cancer IC50,LS 174T cells; LS 174T (CrC) vs HME-1 (Table 3),1514.9
same,IC50,"LS 174T cells; LS 174T (CrC), 72 hrs, WST-1 (Table 1), read-out: Absolute IC50",20 nM
same,"Maximal efficacy, cytotoxicity (%) at 100 μM","LS 174T cells; LS 174T (CrC), 72 hrs, WST-1 (Table 2)",54.86%
same,SI = HME-1 IC50/cancer IC50,A-172 cells; A-172 (GBM) vs HME-1 (Table 3),30.54
same,SI = HUVEC IC50 / cancer IC50,"A-172 cells; A-172 (GBM), * towards HUVEC cells (Table 6)",*34.4
same,SI = iAstro IC50 / cancer IC50,"A-172 cells; A-172 (GBM), ** towards hiPSCs (iAstro) (Table 6)",**15.8
same,SI = normal IC50 / cancer IC50,"A-172 cells; A-172 (GBM), selectivity towards HME-1 cells (Table 6)",30.5
same,IC50,"A-172 cells; A-172 (GBM), 72 hrs, WST-1 (Table 1)",1210 nM
same,"Maximal efficacy, cytotoxicity (%) at 100 μM","A-172 cells; A-172 (GBM), 72 hrs, WST-1 (Table 2)",98.08%
same,IC50,"A-172 cells; A-172 (GBM), 72 hrs, WST-1 (Table 4)",1290 nM
same,Maximal efficacy,"A-172 cells; A-172 (GBM), 72 hrs, WST-1 (Table 5)",80.9%
same,"Selectivity index towards hiPSC-derived astrocytes, GBM","A-172 cells; GBM indication as a whole (A-172 and U-87 MG), vs iAstro",14.9±0.8
same,SI = HME-1 IC50/cancer IC50,NCI-H292 cells; NCI-H292 (NSCLC) vs HME-1 (Table 3),6.30
same,IC50,"NCI-H292 cells; NCI-H292 (NSCLC), 72 hrs, WST-1 (Table 1), read-out: Absolute IC50",5.86 µM
same,"Maximal efficacy, cytotoxicity (%) at 100 μM","NCI-H292 cells; NCI-H292 (NSCLC), 72 hrs, WST-1 (Table 2)",55.15%
